The values that follow come from ChEMBL document CHEMBL1201862, “PubChem BioAssay data set” (2004).

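Growth conditions: 96-well plates. Treatment: test compound, 48 hours, 5 concentrations. Analysis: linear interpolation between bracketing concentrations; unreached endpoints set to highest concentration. Here, GI50 denotes the concentration required for 50% inhibition of growth.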 Calls of active or inactive are those of the source. No stated cut-off is given here; in the data, active = GI50 up to about 1.1 µM and inactive = higher.

Among the test systems are SNB-19; NCI-H460; RPMI-8226; UACC-257; HOP-62; A549; HCC 2998; IGROV-1; HCT-15; Malme-3M; HCT-116; OVCAR-5; SF-539; OVCAR-4; HT-29; CAKI-1; M14; 786-0.
Test in all cases: NCI anticancer screen, dose series, 48 h

Regarding `O=C(/C=C\c1ccc(/C=C/C(=O)Nc2cccc(C3=NCCCN3)c2)cc1)Nc1cccc(C2=NCCCN2)c1`, the GI50 in the test with SNB-19 is > 100 µM (inactive); with NCI-H460, > 100 µM (inactive); with RPMI-8226, 33.9 µM (inactive); with UACC-257, > 100 µM (inactive); with HOP-62 it was 65.8 µM (inactive); in the test on A549, > 100 µM (inactive). Also, the GI50 with HCC 2998 was 69.2 µM (inactive); with IGROV-1, > 100 µM (inactive); with HCT-15, more than 100 µM; in the test on Malme-3M it was > 100 µM (inactive); with HCT-116, > 100 µM (inactive); with OVCAR-5, > 100 µM (inactive). The GI50 with SF-539, with OVCAR-4 and in the test with HT-29 was > 100 µM (inactive) each time.
On to `Cc1cc(C)c2c(c1)CSCc1cc(C)cc(C)c1-2`, for which the GI50 in the test on SNB-19 is 44.8 µM (inactive); in the test on NCI-H460, 24.2 µM (inactive); in the test on RPMI-8226 it was 22.9 µM (inactive); in the test on UACC-257, 24.8 µM (inactive); in the test on CAKI-1 it was 26.2 µM (inactive); in the test on HOP-62, 27.6 µM (inactive). Besides, the GI50 in the test on A549 was 30.9 µM (inactive); in the test on M14, 22.6 µM (inactive); with HCC 2998 it was 35.2 µM (inactive); with IGROV-1, 34.1 µM (inactive); in the test on HCT-15, 32.4 µM; in the test with 786-0, 32.5 µM (inactive). The GI50 is 18.1 µM (inactive) in the test with Malme-3M; 22 µM (inactive) in the test with HCT-116; 29.9 µM (inactive) in the test on OVCAR-5; 39.2 µM (inactive) in the test on OVCAR-4; 19.3 µM (inactive) with HT-29.
Consider `C#CC1(O)CC(c2ccccc2)N(C)C(c2ccccc2)C1` (stereo not given), for which the GI50 in the test on SNB-19, in the test on NCI-H460, in the test with UACC-257, with CAKI-1, with HOP-62 and with A549 was > 100 µM (inactive) in each case. Also, the GI50 was > 100 µM (inactive) with M14; > 100 µM (inactive) with HCC 2998; > 100 µM (inactive) in the test on IGROV-1; more than 100 µM in the test with HCT-15; > 100 µM (inactive) in the test with 786-0; > 100 µM (inactive) with Malme-3M. In addition, the GI50 in the test on HCT-116 was 18.4 µM (inactive); in the test with OVCAR-5, > 100 µM (inactive); in the test with SF-539, > 100 µM (inactive); with OVCAR-4, > 100 µM (inactive); in the test on HT-29, > 100 µM (inactive).
With `Nc1c(Cl)ncnc1NCCCNc1ncnc(Cl)c1N`, the GI50 in the test with SNB-19 is > 100 µM (inactive); in the test with NCI-H460 it was > 100 µM (inactive); with RPMI-8226, > 100 µM (inactive); in the test with UACC-257, 67 µM (inactive); in the test on CAKI-1, > 100 µM (inactive); in the test on HOP-62 it was > 100 µM (inactive). For the same molecule, the GI50 is > 100 µM (inactive) in the test on A549; > 100 µM (inactive) in the test on M14; > 100 µM (inactive) in the test with HCC 2998; > 100 µM (inactive) in the test with IGROV-1; more than 100 µM with HCT-15; > 100 µM (inactive) with 786-0. Also, the GI50 in the test with HCT-116, in the test with OVCAR-5, with SF-539, with OVCAR-4 and with HT-29 was > 100 µM (inactive) throughout.
Regarding `O=C(N/C(=C\c1ccc([N+](=O)[O-])cc1)c1nc2ccccc2[nH]1)c1ccccc1`, the GI50 with SNB-19 was > 100 µM (inactive); in the test with NCI-H460, > 100 µM (inactive); in the test on RPMI-8226 it was > 100 µM (inactive); in the test on UACC-257, > 100 µM (inactive); in the test on HOP-62, > 100 µM (inactive); in the test with A549 it was 93.5 µM (inactive). For the same molecule, the GI50 in the test with M14 was > 100 µM (inactive); in the test with HCC 2998, > 100 µM (inactive); in the test with IGROV-1, > 100 µM (inactive); in the test on HCT-15 it was 45.5 µM; in the test with 786-0 it was > 100 µM (inactive); in the test on Malme-3M, > 100 µM (inactive). For the same molecule, the GI50 with HCT-116 was 72.4 µM (inactive); with OVCAR-5, > 100 µM (inactive); in the test on SF-539, > 100 µM (inactive); in the test on OVCAR-4 it was > 100 µM (inactive); in the test with HT-29, 95.7 µM (inactive).
Consider `O=S1(=O)OCCOS(=O)(=O)C1Br`, for which the GI50 in the test with SNB-19 was 64.9 µM (inactive); in the test with RPMI-8226, > 100 µM (inactive); in the test on UACC-257, > 100 µM (inactive); in the test with CAKI-1, > 100 µM (inactive); in the test on HOP-62, > 100 µM (inactive); with A549 it was > 100 µM (inactive). Also, the GI50 in the test on M14, in the test on HCC 2998, with IGROV-1, in the test on 786-0, with Malme-3M and with HCT-116 was > 100 µM (inactive) throughout. For the same molecule, the GI50 in the test with SF-539, in the test with OVCAR-4 and with HT-29 was > 100 µM (inactive) each time.
For `COc1cc(C2C(Cl)C(=O)N2n2cnc3ccccc3c2=O)cc(OC)c1OC` (stereo not given), the GI50 with SNB-19 is > 100 µM (inactive); in the test with NCI-H460 it was > 100 µM (inactive); in the test on RPMI-8226 it was 77.8 µM (inactive); in the test on UACC-257, 55.8 µM (inactive); with CAKI-1, 67.1 µM (inactive); in the test on HOP-62, > 100 µM (inactive). The GI50 was > 100 µM (inactive) with A549; 84.5 µM (inactive) with M14; > 100 µM (inactive) with HCC 2998; > 100 µM (inactive) with IGROV-1; 63.7 µM in the test with HCT-15; > 100 µM (inactive) in the test with 786-0. Moreover, the GI50 in the test on Malme-3M was > 100 µM (inactive); in the test on HCT-116, > 100 µM (inactive); in the test with OVCAR-5 it was > 100 µM (inactive); with OVCAR-4 it was 82.2 µM (inactive); in the test on HT-29 it was > 100 µM (inactive).
For the molecule `OC(c1ccccc1)C1CC2C=CC1C2` (stereo not given), the GI50 in the test with SNB-19, in the test with NCI-H460, in the test on RPMI-8226, in the test on UACC-257, with CAKI-1 and in the test with HOP-62 was > 100 µM (inactive) in each case. The GI50 in the test with A549 was > 100 µM (inactive); in the test on M14, > 100 µM (inactive); in the test with IGROV-1 it was > 100 µM (inactive); in the test on HCT-15 it was more than 100 µM; in the test with Malme-3M it was > 100 µM (inactive); with HCT-116, > 100 µM (inactive). Moreover, the GI50 with OVCAR-5, with SF-539, in the test with OVCAR-4 and with HT-29 was > 100 µM (inactive) each time.
`CC(=O)Nc1ccc(-c2nnc(SCC(=O)Nc3cccc([N+](=O)[O-])c3)o2)cc1`: the GI50 is 14.5 µM (inactive) in the test with NCI-H460; 20.7 µM (inactive) in the test with RPMI-8226; 17.3 µM (inactive) with UACC-257; 13.7 µM (inactive) with CAKI-1; 22.9 µM (inactive) in the test on HOP-62; 17.5 µM (inactive) with A549. Besides, the GI50 is 16.1 µM (inactive) with M14; 4.11 µM (inactive) with IGROV-1; 15.4 µM in the test with HCT-15; 17.6 µM (inactive) with 786-0; 11.6 µM (inactive) in the test with Malme-3M; 14 µM (inactive) in the test with HCT-116. Moreover, the GI50 in the test with OVCAR-5 was 23.9 µM (inactive); with SF-539, 15.8 µM (inactive); with OVCAR-4, 11.6 µM (inactive); with HT-29 it was 16.1 µM (inactive).
With `CCCCCCCC(=O)OC[C@H](C[As](=O)(O)O)OC(=O)CCCCCCC`, the GI50 was 14.3 µM (inactive) in the test with SNB-19; 5.36 µM (inactive) in the test with RPMI-8226; 12.8 µM (inactive) with UACC-257; 18.7 µM (inactive) in the test on HOP-62; 2.86 µM (inactive) with A549; 12.3 µM (inactive) in the test with M14. Also, the GI50 was 14.6 µM (inactive) with HCC 2998; 3.57 µM (inactive) with IGROV-1; 10.5 µM in the test on HCT-15; 13.4 µM (inactive) in the test on 786-0; 12.7 µM (inactive) in the test on Malme-3M; 5.24 µM (inactive) in the test on HCT-116. Further, the GI50 in the test on SF-539 is 5.13 µM (inactive); in the test on OVCAR-4 it was 12.2 µM (inactive); with HT-29 it was 12.2 µM (inactive).
Turning to `COc1cc2c(cc1OC)C(N(C)C)C(c1ccccc1)=C2Cl` (stereo not given), the GI50 in the test with SNB-19 is 37.9 µM (inactive); with NCI-H460, 19 µM (inactive); in the test on RPMI-8226 it was 18.2 µM (inactive); with UACC-257, 18 µM (inactive); in the test on HOP-62, 36.4 µM (inactive); with M14, 19.8 µM (inactive). Also, the GI50 in the test with IGROV-1 was 21.8 µM (inactive); in the test with HCT-15, 17.5 µM; in the test on 786-0 it was 25.3 µM (inactive); with OVCAR-5 it was 34 µM (inactive); in the test on SF-539 it was 20.5 µM (inactive); with OVCAR-4 it was 27.4 µM (inactive). The GI50 in the test with HT-29 was 19.9 µM (inactive).
As to `O=[N+]([O-])c1ccccc1S(=O)(=O)c1ccccc1`, the GI50 with NCI-H460, in the test with RPMI-8226, with UACC-257, with HOP-62, with A549 and with M14 was > 100 µM (inactive) in each case. For the same molecule, the GI50 is > 100 µM (inactive) with HCC 2998; > 100 µM (inactive) with IGROV-1; more than 100 µM with HCT-15; > 100 µM (inactive) in the test with Malme-3M; > 100 µM (inactive) in the test on HCT-116; > 100 µM (inactive) in the test with OVCAR-5. Also, the GI50 is > 100 µM (inactive) in the test with SF-539, 52.6 µM (inactive) with OVCAR-4 and > 100 µM (inactive) in the test on HT-29.
Consider `COc1cc(CNc2ccc(C(C)C)cc2)cc(OC)c1OC`, for which the GI50 in the test on SNB-19 was 29.6 µM (inactive); in the test with NCI-H460 it was 13.4 µM (inactive); in the test on RPMI-8226, 14.4 µM (inactive); in the test on UACC-257, 25.8 µM (inactive); in the test with HOP-62, 23.9 µM (inactive); with A549, 13 µM (inactive). The GI50 was 31 µM (inactive) in the test with IGROV-1; 16.9 µM in the test with HCT-15; 15.4 µM (inactive) in the test on 786-0; 19.5 µM (inactive) in the test on Malme-3M; 11.5 µM (inactive) in the test with HCT-116; 24.8 µM (inactive) with OVCAR-5. The GI50 is 20.3 µM (inactive) with SF-539, 25.3 µM (inactive) in the test on OVCAR-4 and 16.9 µM (inactive) in the test with HT-29.
